# Source: patent US8178579B2, “Dioxanes and uses thereof” (President and Fellows of Harvard College, priority 2001, dated 2012)
# Columns and labels:
# HDAC6F H216A mutant [1] = molecular target: T1, HDAC6F H216A mutant (Homo sapiens, UniProt Q9UBN7, H216A); assay: in vitro tubulin deacetylase (TDAC) assay, HDAC6F H216A mutant; format: biochemical; conditions: acetylated tubulin as substrate
# T1 construct: made in house; host or cells: TAg Jurkat cells, transient transfection, anti-FLAG M2 immunoprecipitation
# T1 sequence (Q9UBN7 1-1215 H216A): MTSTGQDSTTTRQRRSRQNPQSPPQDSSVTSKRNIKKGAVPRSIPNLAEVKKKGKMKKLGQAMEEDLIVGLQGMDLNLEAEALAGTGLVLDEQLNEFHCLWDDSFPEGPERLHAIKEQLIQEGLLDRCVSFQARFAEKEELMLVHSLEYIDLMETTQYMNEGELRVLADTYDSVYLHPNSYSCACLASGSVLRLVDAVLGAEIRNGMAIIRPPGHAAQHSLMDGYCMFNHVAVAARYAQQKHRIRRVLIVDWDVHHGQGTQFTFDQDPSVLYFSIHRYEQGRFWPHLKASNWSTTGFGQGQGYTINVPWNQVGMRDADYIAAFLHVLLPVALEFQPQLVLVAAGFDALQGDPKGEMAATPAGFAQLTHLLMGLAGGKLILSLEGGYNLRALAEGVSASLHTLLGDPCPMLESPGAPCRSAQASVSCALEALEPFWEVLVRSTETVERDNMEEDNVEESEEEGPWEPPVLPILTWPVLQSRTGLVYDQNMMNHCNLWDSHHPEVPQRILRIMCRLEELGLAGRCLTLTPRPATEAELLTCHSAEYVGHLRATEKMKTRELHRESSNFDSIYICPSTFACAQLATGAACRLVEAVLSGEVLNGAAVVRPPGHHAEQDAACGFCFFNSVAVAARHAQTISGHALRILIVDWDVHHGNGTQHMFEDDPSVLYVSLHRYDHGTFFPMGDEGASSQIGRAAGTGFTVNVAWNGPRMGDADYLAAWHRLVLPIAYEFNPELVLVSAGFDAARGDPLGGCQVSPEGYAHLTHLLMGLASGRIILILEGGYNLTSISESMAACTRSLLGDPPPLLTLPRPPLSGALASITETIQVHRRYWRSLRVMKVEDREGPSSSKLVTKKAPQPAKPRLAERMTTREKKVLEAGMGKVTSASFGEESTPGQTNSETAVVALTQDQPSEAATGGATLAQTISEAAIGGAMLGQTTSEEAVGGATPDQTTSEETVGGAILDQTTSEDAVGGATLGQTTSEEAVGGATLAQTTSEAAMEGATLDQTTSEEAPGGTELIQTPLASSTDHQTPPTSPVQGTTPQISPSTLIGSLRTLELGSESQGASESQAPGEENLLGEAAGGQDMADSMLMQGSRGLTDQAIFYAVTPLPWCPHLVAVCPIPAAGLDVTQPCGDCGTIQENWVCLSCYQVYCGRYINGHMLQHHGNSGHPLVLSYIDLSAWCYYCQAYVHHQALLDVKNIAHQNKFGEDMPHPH
# Protocol: (§1) FLAG-tagged HDAC pBJ5 constructs were transiently transfected by electroporation with 5 μg DNA for expression of recombinant proteins (C. M. Grozinger, C. A. Hassig and S. L. Schreiber, Proc. Natl. Acad. Sci. USA, 27, 4868 (1999); and C. A. Hassig et al., Proc. Natl. Acad. Sci. USA 95, 3519 (1998)]. Cells were mock transfected without DNA or with a non-FLAG-tagged pCMV-LacZ construct as a negative control. Forty-eight hours after transfection recombinant proteins were immunoprecipitated using anti-FLAG M2 agarose affinity gel beads as described [C. A. Hassig et al., Proc. Natl. Acad. Sci. USA 95, 3519 (1998)]. Western blotting using anti-acetylated α-tubulin (1:1000) anti-tubulin (1:1000), and anti-acetylated (K9, K14) histone H3 (1:1000) antibodies was performed using standard methods (K. M. Koeller et al., Chemistry & Biology, 10 (5) (2003) pp. 397-410). […]
# (§2) [^3H]Acetate-incorporated histones were isolated from butyrate-treated HeLa cells as described [J. Taunton, C. […] Immunoprecipitates were incubated with acetylated histones and HDAC activity determined by scintillation counting as described [J. Taunton, C. […] After centrifugation, the supernatant (diluted to 0.4 μg tubulin) and α-FLAG M2 agarose affinity gel beads were analyzed by western blotting with an anti-FLAG M2 antibody (1:1750) to ensure equal protein levels.
# HDAC6F H216A mutant [2] = molecular target: T1, HDAC6F H216A mutant; assay: in vitro deacetylase assay with [3H]-histones, HDAC6F H216A mutant; format: biochemical; conditions: [3H]-labeled histones, n=3
# Protocol: as §1, §2
Compound,inhibition of TDAC activity of HDAC6F H216A mutant (HDAC6F H216A mutant [1]),inhibition of HDAC activity of HDAC6F H216A mutant (HDAC6F H216A mutant [2])
"CC(/C=C/C(=O)NO)=C\[C@@H](C)C(=O)c1ccc(N(C)C)cc1 [TSA, trichostatin A, reference compound]",exhibited TDAC activity that was inhibited by tubacin and TSA,only partial inhibited by TSA or tubacin
O=C(CCCCCCC(=O)Nc1ccc([C@@H]2OC(c3ccc(CO)cc3)C[C@H](CSc3nc(-c4ccccc4)c(-c4ccccc4)o3)O2)cc1)NO (stereo partly shown) [tubacin],exhibited TDAC activity that was inhibited by tubacin and TSA,only partial inhibited by TSA or tubacin
